Reference: US20230026271A1, “Piperazine Compounds for Inhibiting CPS1” (Eisai R&D Management Co., Ltd., priority 2019, published 2023)

Target: T1, CPS1 (Homo sapiens, UniProt P31327)
T1 construct: The full length, human CPS1 gene was cloned into pFastBac HTA; His6 (from the pFastBac HTA vector); made in house; host or cells: SF21 insect cells (baculovirus, Bac-to-bac)
T1 sequence (P31327 39-1500): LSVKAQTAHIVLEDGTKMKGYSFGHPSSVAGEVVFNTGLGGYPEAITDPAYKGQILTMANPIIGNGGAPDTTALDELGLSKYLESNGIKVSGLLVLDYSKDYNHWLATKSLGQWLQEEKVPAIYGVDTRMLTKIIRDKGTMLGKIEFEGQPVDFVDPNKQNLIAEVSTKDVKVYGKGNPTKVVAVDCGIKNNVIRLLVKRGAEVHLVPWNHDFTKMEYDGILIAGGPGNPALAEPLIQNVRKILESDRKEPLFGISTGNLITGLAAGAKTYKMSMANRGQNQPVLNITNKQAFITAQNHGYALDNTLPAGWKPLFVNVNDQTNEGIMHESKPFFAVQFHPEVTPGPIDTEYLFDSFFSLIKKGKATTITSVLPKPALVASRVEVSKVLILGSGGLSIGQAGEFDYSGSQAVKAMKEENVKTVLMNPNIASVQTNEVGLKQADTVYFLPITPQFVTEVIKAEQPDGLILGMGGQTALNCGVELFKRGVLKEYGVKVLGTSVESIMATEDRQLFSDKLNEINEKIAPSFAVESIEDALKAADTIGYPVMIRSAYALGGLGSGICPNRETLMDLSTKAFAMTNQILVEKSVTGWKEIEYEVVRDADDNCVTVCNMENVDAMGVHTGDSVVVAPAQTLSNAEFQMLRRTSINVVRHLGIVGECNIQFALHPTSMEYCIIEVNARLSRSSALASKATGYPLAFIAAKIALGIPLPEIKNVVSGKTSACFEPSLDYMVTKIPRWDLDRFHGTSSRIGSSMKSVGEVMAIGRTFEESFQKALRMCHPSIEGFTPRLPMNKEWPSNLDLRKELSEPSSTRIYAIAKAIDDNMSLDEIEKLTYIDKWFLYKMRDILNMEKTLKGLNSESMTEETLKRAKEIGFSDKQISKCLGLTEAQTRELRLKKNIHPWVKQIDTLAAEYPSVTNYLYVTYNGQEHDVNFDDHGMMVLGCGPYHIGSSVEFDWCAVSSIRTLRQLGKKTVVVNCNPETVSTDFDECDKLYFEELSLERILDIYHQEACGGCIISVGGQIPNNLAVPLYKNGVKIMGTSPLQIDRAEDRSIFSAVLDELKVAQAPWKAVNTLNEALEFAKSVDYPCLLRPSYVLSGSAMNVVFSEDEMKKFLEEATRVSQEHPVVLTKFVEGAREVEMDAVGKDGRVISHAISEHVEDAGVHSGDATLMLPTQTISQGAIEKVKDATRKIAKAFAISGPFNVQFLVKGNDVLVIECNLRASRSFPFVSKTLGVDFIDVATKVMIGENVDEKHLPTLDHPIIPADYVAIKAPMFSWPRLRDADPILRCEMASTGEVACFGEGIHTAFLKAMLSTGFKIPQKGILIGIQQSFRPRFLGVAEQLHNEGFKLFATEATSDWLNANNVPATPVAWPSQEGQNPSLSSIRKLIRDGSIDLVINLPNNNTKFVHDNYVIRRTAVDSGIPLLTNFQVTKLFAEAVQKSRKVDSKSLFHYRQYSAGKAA
Assay: ADP-Glo endpoint assay measuring the ATPase activity of CPS1
Format: biochemical
Conditions: geometric mean of a minimum of two values; 50 nM CPS1, 10 μM ATP, 0.2 mM NAG, 60 min at room temperature; read-out: ADPGlo IC50
Description: CPS1 was expressed and purified from SF21 insect cells. The full length, human CPS1 gene was cloned into pFastBac HTA and baculovirus was generated using the Bac-to-bac expression system from Invitrogen. P3 virus was used to infect SF21 insect cells at a density of 1.5E6 cells/mL at an MOI of 2. Cells were harvested by centrifugation after 60 hrs and the cell pellet resuspended in lysis buffer (50 mM glycyl glycine pH 7.4, 20 mM KCl, 1 mM TCEP, 10% glycerol and 20 mM imidazole with Roche protease inhibitor tablet) before being lysed with 40 strokes of a Dounce homogenizer on ice. The insoluble fraction of the lysate was then cleared by centrifugation at 30,000 rpm for 30 min. 40 mL of supernatant was mixed with 2 mL of Ni NTA beads for 45 min at 4° C. in a 50 mL conical tube.
The beads were washed with 40 mL of wash buffer (50 mM glycyl glycine pH 7.4, 500 mM NaCl, 1 mM TCEP, 10% glycerol and 50 mM imidazole) by centrifugation and resuspension of the beads three times. Bound CPS1 protein was eluted in 6 mL of elution buffer (50 mM glycyl glycine pH 7.4, 500 mM NaCl, 1 mM TCEP, 10% glycerol and 250 mM imidazole) three times. Elution fractions were combined and concentrated using an Amicon Ultra centrifugation filter with a 10,000 molecular weight cut off. Imidazole was removed by repeated concentration and resuspension in storage buffer in the filter device (50 mM glycyl glycine pH 7.4, 500 mM NaCl, 1 mM TCEP and 20% glycerol). CPS1 was concentrated to a final concentration of ˜3 mg/mL before being aliquoted, flash frozen in liquid nitrogen and stored at −80° C.
CPS1 activity was measured and compounds profiled in an endpoint assay measuring the ATPase activity of CPS1 using the ADP-Glo kit from Promega. 50 nM CPS1 was incubated alone or with varying amounts of tested compound from DMSO stocks in assay buffer (50 mM HEPES pH 7.0, 12.5 mM KHCO3, 1.5 mM (NH4)2SO3, 5 mM MgCl2, 50 mM KCl, 1 mM TCEP, 0.01% TritonX 100, 0.0025% BSA and 0.2 mM NAG) for 20 min in a 3 μL volume in a 384-well plate (Corning Cat#3820). The final concentration of DMSO was 0.04%. The reaction was initiated by the addition of 10 μM ATP, bringing the final volume to 6 μL. After 60 min at room temperature, the reaction was terminated with 3 μL ADP-Glo reagent and incubated at room temperature for 30 min. 3 μL of kinase detection reagent was then added and luminescent signal measured on an Envision plate reader after 30 min.

Question: Which IC50 does the source give for COc1ccc(C(=O)N2[C@H](C)CN(C(=O)c3cc(Cl)c4cc[nH]c4c3)C[C@H]2C)c(F)c1 [Compound 17, (4-Chloro-1H-indol-6-yl)((3R,5R)-4-(2-fluoro-4-methoxybenzoyl)-3,5-dimethylpiperazin-1-yl)methanone] here?
Answer: 0.526 µM

Question: With COc1ccc(C(=O)N2C[C@@H](C)N(C(=O)c3ccc(-c4ncc[nH]4)cc3)[C@H](C)C2)c(F)c1 [Compound 40, ((3R,5R)-4-(4-(1H-imidazol-2-yl)benzoyl)-3,5-dimethylpiperazin-1-yl)(2-fluoro-4-methoxyphenyl)methanone] as the compound, how does the IC50 read?
Answer: 7.53 µM

Question: With COc1ccc(C(=O)N2C[C@@H](C)N(C(=O)c3c(F)cc(SC)cc3F)[C@H](C)C2)c(F)c1 [Compound 25, ((3R,5R)-4-(2,6-difluoro-4-(methylthio)benzoyl)-3,5-dimethylpiperazin-1-yl)(2-fluoro-4-methoxyphenyl)methanone] as the compound, how does the IC50 read?
Answer: 0.255 µM

Question: For COc1ccc(C(=O)N2[C@H](C)CN(C(=O)c3cnc4cc[nH]c4c3)C[C@H]2C)c(F)c1 [Compound 37, ((2R,6R)-2,6-Dimethyl-4-(1H-pyrrolo[3,2-b]pyridine-6-carbonyl)piperazin-1-yl)(2-fluoro-4-methoxyphenyl)methanone], which IC50 is on record?
Answer: 2.51 µM

Question: COc1ccc(C(=O)N2C[C@@H](C)N(C(=O)c3ccc(OC)cc3)[C@H](C)C2)cc1 [Compound 63, ((2R,6R)-2,6-dimethylpiperazine-1,4-diyl)bis((4-methoxyphenyl)methanone)] was tested. Which IC50 did it give?
Answer: 4.74 µM

Question: For COc1ccc(C(=O)N2C[C@@H](C)N(C(=O)c3ccc(OC)c(C)c3)[C@H](C)C2)c(F)c1 [Compound 79, ((2R,6R)-4-(2-fluoro-4-methoxybenzoyl)-2,6-dimethylpiperazin-1-yl)(4-methoxy-3-methylphenyl)methanone], which IC50 is on record?
Answer: 22.2 µM

Question: With COc1ccc(C(=O)N2C[C@@H](C)N(C(=O)c3ccc(CCO)cc3)[C@H](C)C2)c(F)c1 [Compound 42, ((2R,6R)-4-(2-Fluoro-4-methoxybenzoyl)-2,6-dimethylpiperazin-1-yl)(4-(2-hydroxyethyl)phenyl)methanone] as the compound, how does the IC50 read?
Answer: 10.7 µM

Question: How did the IC50 turn out when COc1ccc(C(=O)N2CC(C)N(C(=O)c3ccc(OC)cc3F)CC2C)c(F)c1 (centres unmarked) [Compound 71] was run?
Answer: 9.97 µM

Question: Which IC50 does the source give for COc1ccc(C(=O)N2C[C@@H](C)N(C(=O)c3ccc(OC)c(F)c3)[C@H](C)C2)c(F)c1 [Compound 29, ((2R,6R)-4-(2-Fluoro-4-methoxybenzoyl)-2,6-dimethylpiperazin-1-yl)(3-fluoro-4-methoxyphenyl)methanone] here?
Answer: 2.3 µM

Question: With COc1ccc(C(=O)N2C[C@@H](C)N(C(=O)c3c(C)cc(OC)cc3F)[C@H](C)C2)c(F)c1 [Compound 28, ((3R,5R)-4-(2-Fluoro-4-methoxy-6-methylbenzoyl)-3,5-dimethylpiperazin-1-yl)(2-fluoro-4-methoxyphenyl)methanone] as the compound, how does the IC50 read?
Answer: 0.909 µM

Question: For COc1ccc(C(=O)N2[C@H](C)CN(C(=O)c3cccc(OC)c3F)C[C@H]2C)c(F)c1 [Compound 92, ((2R,6R)-4-(2-fluoro-3-methoxybenzoyl)-2,6-dimethylpiperazin-1-yl)(2-fluoro-4-methoxyphenyl)methanone], which IC50 is on record?
Answer: > 66.7 µM

Question: Which IC50 does the source give for COc1ccc(C(=O)N2[C@H](C)CN(C(=O)c3c[nH]c4c(C)cccc34)C[C@H]2C)c(F)c1 [Compound 56, ((2R,6R)-2,6-dimethyl-4-(7-methyl-1H-indole-3-carbonyl)piperazin-1-yl)(2-fluoro-4-methoxyphenyl)methanone] here?
Answer: 3.28 µM

Question: For COc1ccc(C(=O)N2C[C@@H](C)N(C(=O)c3c[nH]c4ccc(O)cc34)[C@H](C)C2)c(F)c1 [Compound 104, ((2R,6R)-4-(2-fluoro-4-methoxybenzoyl)-2,6-dimethylpiperazin-1-yl)(5-hydroxy-1H-indol-3-yl)methanone], which IC50 is on record?
Answer: > 66.7 µM

Question: How did the IC50 turn out when COc1ccc(C(=O)N2[C@H](C)CN(C(=O)c3c[nH]c4ccc(O)cc34)C[C@H]2C)c(F)c1 [Compound 98, ((3R,5R)-4-(2-fluoro-4-methoxybenzoyl)-3,5-dimethylpiperazin-1-yl)(5-hydroxy-1H-indol-3-yl)methanone] was run?
Answer: > 66.7 µM
